Measurements from US20090017103A1, “Antisense oligonucleotides for prevention of metastasis formation of cancer cells” (priority 2003, published 2009).
Where “and” joins values, the source holds several entries; their conditions need not be identical. Equal values may be shown once.

Assays:
MDA-MB-231^GFP cells [1] = test: In vivo model with pretreated MDA-MB-231^GFP cells (osteolytic bone metastasis); design: species or system nude rats; lesion size of the rat(s) that developed lytic metastasis, % of control / lesion sizes with respect to all animals of the group compared to untreated control / lesion size of individual animal compared to the untreated control / T/C % (mean lesion size compared to untreated control): concentration or dose not given beside the values; conditions: for T/C × 100: mean lesion size vs untreated control rats; for Incidence of metastasis: cells pretreated in vitro (10 μM);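 on Mean size of lesion: mean lesion size in relative units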
[2] = test system: MDA-MB-231 breast cancer cells; test: Clonogenicity assay (colony formation); assay type: cell-based, human; conditions: 20 μM
Description: For determining the response of MDA-MB-231 colony formation to exposure with antisense oligonucleotides and erucylphospho-NNN-trimethylpropanolamine (ErPC3) the following procedure was used. MDA-MB-231 cells were treated for various periods of time (see below), harvested and counted. Cells (5000) were then transferred into semi-solid medium containing 0.8t RPMI-methylcellulose and 30% FBS. Cells were plated onto 3.5 cm Petri-dishes (1 ml/dish) (NUNC, Wiesbaden, Germany) and usual cell culture conditions (37° C., 5% CO2 in humidified air) were applied. Colony formation (clusters of 30 or more cells) was visualized by staining with 3-[4,5-dimethylthiazol-2-yl]-2,5-diphenyltetrazolium-bromide (MTT; Serva, Heidelberg, Germany) and the resulting dark blue colonies were scored by an inverted microscope after 5-7 days. At least three dishes per treatment protocol were used.
Pending on the duration of treatment, 1×10^5-3×10^5 cells were transferred onto 6 well plates (Nunc, Wiesbaden, Germany) and grown for 24 h. For transfection, ASO stock solutions were prepared in medium without FBS. According to the protocol of the manufacturer, the respective ASO stock solution was mixed with lipofectamine to allow ASO-liposome complexes to form. To 200 μl medium containing ASO quantities resulting in 10 μM (Western blot and in vivo model) and in 5, 10, or 20 μM (clonogenicity assay) final ASO-concentrations, an equal volume of medium without FBS was added containing 5, 10, or 20 μl lipofectamine, respectively. In addition to the ASO treatment, a NSO control (20 μM final concentration with 20 μl lipofectamine) and a lipofectamine control (20 μl) were used. […] After 12 h the medium was changed, and cells were further grown for 48-72 h. In the case of a sequential combination treatment this first cycle was repeated with the respective combination partner.
The alkylphosphocholine ErPC3 was synthesized and provided by Prof. H. Eibl (MPI of Biophysical Chemistry, Göttingen, FRG). For treating MDA-MB-231 cells, ErPC3 which was kept as stock solution in ethanol and PBS (10 mM; ratio of diluents 1:1; V:V), was diluted in PBS resulting in final concentrations of 10, 14, and 20 μM. The medium containing ErPC3 was changed after 24 h in all experiments and the cells were further grown for 48-72 h without ErPC3 (for details of sequential exposure see below).
Sequential combination treatment consisted of two or three treatment cycles. The two cycle treatment started either with the ASO and was followed by ErPC3 or was performed with the reverse sequence. The three cycle treatment started either with two cycles of ASO followed by ErPC3 or an initial exposure to ErPC3 was followed by two cycles with an ASO.
Colony counts are presented as mean with corresponding standard deviation. For comparison of incidences between treatment groups the x^2 test was used and for comparison of the lesion sizes the Kruskal-Wallis test was applied. P values≦0.05 were considered significant. Predicted theoretical values of combinations were calculated according to the equation: C=a×b/100, where a and b are colony counts in percent of untreated control obtained in response to single agents. For each concentration applied theoretical values were calculated and compared with the real value of the combination. In addition, isobologram and multiple drug effect analysis was examined by a suitable program (CalcuSyn, Biosoft, Ferguson, USA) to study the nature of the interaction observed. For this purpose, the dose-effect curve for each drug alone was determined based on the experimental observations using the median-effect principle; the combination index (CI) for each combination was then calculated according to the following equation:
CI=(D)1/(Dx)1+(D)2/(Dx)2+(D1)×(D2)/(Dx)1×(Dx)2
where (D)1 and (D)2 are the doses of drug 1 and drug 2 that have x effect when used in combination and (Dx)1 and (Dx)2 are the doses of drug 1 and drug 2 that have the same x effect when used alone. […]

bone sialoprotein II = test: Western blot of bone sialoprotein II expression after exposure to ASOs; assay type: cell-based, human; conditions: 10 μM
osteonectin = test: Western blot of osteonectin expression after exposure to ASOs; assay type: cell-based, human; conditions: single exposure, lipofectamine, 10 μM
osteopontin = test: Western blot of osteopontin expression after exposure to ASOs; assay type: cell-based, human; conditions: MDA-MB231, lipofectamine, 10 μM
MDA-MB-231^GFP cells [3] = test: In vivo treatment with mini-osmotic pumps (osteolytic bone metastasis model);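 on Mean size of lesion: mean lesion size in relative units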;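 on Size of lesion (per animal): lesion size in relative units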; design: species or system nude rats; conditions: for X-ray scan of hind legs: lytic lesions (in words): FIG. 5-7; for T/C × 100: mean lesion size vs NSO control rats; for Mean size of lesion / Size of lesion (per animal): mini-osmotic pumps; for Incidence of metastasis: mini-osmotic pumps s.c., 7 mg/kg daily over four weeks

5′-GCGAGGGAGTTCTTCTTCTA-3′ (GCGAGGGAGTTCTTCTTCTA; phosphorothioate backbone, further chemistry not given here) [NSO, reference compound]
T/C × 100 (MDA-MB-231^GFP cells [1]; 4 weeks): 78
T/C × 100 (MDA-MB-231^GFP cells [1]; 6 weeks): 95
T/C × 100 (MDA-MB-231^GFP cells [1]; 8 weeks): 140
X-ray scan of hind legs: osteolytic lesions (in words) (MDA-MB-231^GFP cells [1]; FIG. 3 and FIG. 4, one rat each, cells pre-exposed): large osteolytic lesions in the femur, tibia and fibula
Incidence of metastasis (MDA-MB-231^GFP cells [1]; observation period 4 weeks): 2/2
Mean size of lesion (MDA-MB-231^GFP cells [1]; observation period 4 weeks, pretreated cells): 173 R.U.
Incidence of metastasis (MDA-MB-231^GFP cells [1]; observation period 6 weeks): 2/2
Mean size of lesion (MDA-MB-231^GFP cells [1]; observation period 6 weeks, pretreated cells): 287 R.U.
Incidence of metastasis (MDA-MB-231^GFP cells [1]; observation period 8 weeks): 2/2
Mean size of lesion (MDA-MB-231^GFP cells [1]; observation period 8 weeks, pretreated cells): 485 R.U.
T/C % (mean lesion size compared to untreated control) (MDA-MB-231^GFP cells [1]; pretreated cells, after eight weeks): 140%
average lesion sizes compared to untreated control (MDA-MB-231^GFP cells [1]; pretreated cells, after four weeks): about 78%
lesion sizes with respect to all animals of the group compared to untreated control (MDA-MB-231^GFP cells [1]; pretreated cells, over observation period week 4 to week 8): 104%
% Control ([2]; Exp. III a): 94%
Mean colony no. ([2]; Exp. III a, control 456): 430
% Control ([2]; Experiment II, single treatment): 96%
Mean colony no. ([2]; Experiment II, single treatment, control 705): 676
% Control ([2]; Experiment III b): 97%
Mean colony no. ([2]; Experiment III b, control 517): 504
bone sialoprotein II expression in relation to untreated control (100%) (bone sialoprotein II; MDA-MB231, single exposure, electroporation): 99%
bone sialoprotein II expression in relation to untreated control (100%) (bone sialoprotein II; MDA-MB231, single exposure, lipofectamine): 100%
bone sialoprotein II expression in relation to untreated control (100%) (bone sialoprotein II; MDA-MB231, twofold exposure, lipofectamine): 97%
bone sialoprotein II expression in relation to untreated control (100%) (bone sialoprotein II; MDA-MB231^F (growing without FBS), single exposure, lipofectamine): 100%
bone sialoprotein II expression in relation to untreated control (100%) (bone sialoprotein II; MDA-MB435s, single exposure, lipofectamine): 65%
osteonectin expression in relation to untreated control (100%) (osteonectin; MDA-MB231): 94%
osteonectin expression in relation to untreated control (100%) (osteonectin; MDA-MB231^F (growing without FBS)): 80%
osteonectin expression in relation to untreated control (100%) (osteonectin; MDA-MB435s): 97%
osteopontin expression in relation to untreated control (100%) (osteopontin; single exposure): 99.5%
osteopontin expression in relation to untreated control (100%) (osteopontin; twofold exposure): 99%
X-ray scan of hind legs: lytic lesions (in words) (MDA-MB-231^GFP cells [3]; eight weeks after tumor cell implantation): clear increase of lytic lesions in the tibia and fibula
X-ray scan of hind legs: lytic lesions (in words) (MDA-MB-231^GFP cells [3]; four weeks after tumor cell implantation, therapy from implantation): small lytic lesions in the tibia
X-ray scan of hind legs: lytic lesions (in words) (MDA-MB-231^GFP cells [3]; six weeks after tumor cell implantation): visible lytic lesions in the tibia and fibula
X-ray scan of hind legs: lytic lesions (in words) (MDA-MB-231^GFP cells [3]; ten weeks after tumor cell implantation): lytic metastases with clear deterioration are visible in all regions of the right hind leg
T/C × 100 (MDA-MB-231^GFP cells [3]; week 4): 100
Mean size of lesion (MDA-MB-231^GFP cells [3]; week 4): 33 R.U.
Size of lesion (per animal) (MDA-MB-231^GFP cells [3]; week 4): 45 R.U. and 8 R.U. and 46 R.U.
Incidence of metastasis (MDA-MB-231^GFP cells [3]; week 4): 3/3
T/C × 100 (MDA-MB-231^GFP cells [3]; week 6): 100
Mean size of lesion (MDA-MB-231^GFP cells [3]; week 6): 177 R.U.
Size of lesion (per animal) (MDA-MB-231^GFP cells [3]; week 6): 307 R.U. and 29 R.U. and 194 R.U.
Incidence of metastasis (MDA-MB-231^GFP cells [3]; week 6): 3/3
T/C × 100 (MDA-MB-231^GFP cells [3]; week 8): 100
Mean size of lesion (MDA-MB-231^GFP cells [3]; week 8): 273 R.U.
Size of lesion (per animal) (MDA-MB-231^GFP cells [3]; week 8): 403 R.U. and 99 R.U. and 318 R.U.
Incidence of metastasis (MDA-MB-231^GFP cells [3]; week 8): 3/3
T/C × 100 (MDA-MB-231^GFP cells [3]; week 9): 100
Mean size of lesion (MDA-MB-231^GFP cells [3]; week 9): 379 R.U.
Size of lesion (per animal) (MDA-MB-231^GFP cells [3]; week 9): 453 R.U. and 278 R.U. and 406 R.U.
Incidence of metastasis (MDA-MB-231^GFP cells [3]; week 9): 3/3
T/C × 100 (MDA-MB-231^GFP cells [3]; week 10): 100
Mean size of lesion (MDA-MB-231^GFP cells [3]; week 10): 429 R.U.
Size of lesion (per animal) (MDA-MB-231^GFP cells [3]; week 10): 512 R.U. and 313 R.U. and 461 R.U.
Incidence of metastasis (MDA-MB-231^GFP cells [3]; week 10): 3/3
T/C × 100 (MDA-MB-231^GFP cells [3]; week 12): 100
Mean size of lesion (MDA-MB-231^GFP cells [3]; week 12): 434 R.U.
Size of lesion (per animal) (MDA-MB-231^GFP cells [3]; week 12): 534 R.U. and 316 R.U. and 453 R.U.
Incidence of metastasis (MDA-MB-231^GFP cells [3]; week 12): 3/3
